According to paper PMC5564600 (Oncotarget, 2017):
Where two headings read alike, the source gives them in different places.

Legend:
Assay in all cases: biochemical
Assay type in all cases: binding
[1] = target: T1, panel of 442 kinases (Homo sapiens, UniProt P00519, T315I); conditions: for remaining activity at 1 µM: read-out: % of control at 1 µM; for remaining activity at 10 µM: read-out: % of control at 10 µM
T1 construct: purchased Ambit Biosciences (scanMAXX KINOMEscan)

[2] = target: T2, panel of 442 kinases (Homo sapiens, UniProt P14616); conditions: kinase INSRR; for remaining activity at 1 µM: read-out: % of control at 1 µM
T2 construct: purchased Ambit Biosciences (scanMAXX KINOMEscan)

[3] = target: T3, panel of 442 kinases (Homo sapiens, UniProt P27361); conditions: ERK1; for remaining activity at 1 µM: read-out: % of control at 1 µM
T3 construct: purchased Ambit Biosciences (scanMAXX KINOMEscan)

[4] = target: T4, panel of 442 kinases (Homo sapiens, UniProt Q04771); conditions: ACVR1; for remaining activity at 1 µM: read-out: % of control at 1 µM
T4 construct: purchased Ambit Biosciences (scanMAXX KINOMEscan)
T4 sequence (Q04771 21-509): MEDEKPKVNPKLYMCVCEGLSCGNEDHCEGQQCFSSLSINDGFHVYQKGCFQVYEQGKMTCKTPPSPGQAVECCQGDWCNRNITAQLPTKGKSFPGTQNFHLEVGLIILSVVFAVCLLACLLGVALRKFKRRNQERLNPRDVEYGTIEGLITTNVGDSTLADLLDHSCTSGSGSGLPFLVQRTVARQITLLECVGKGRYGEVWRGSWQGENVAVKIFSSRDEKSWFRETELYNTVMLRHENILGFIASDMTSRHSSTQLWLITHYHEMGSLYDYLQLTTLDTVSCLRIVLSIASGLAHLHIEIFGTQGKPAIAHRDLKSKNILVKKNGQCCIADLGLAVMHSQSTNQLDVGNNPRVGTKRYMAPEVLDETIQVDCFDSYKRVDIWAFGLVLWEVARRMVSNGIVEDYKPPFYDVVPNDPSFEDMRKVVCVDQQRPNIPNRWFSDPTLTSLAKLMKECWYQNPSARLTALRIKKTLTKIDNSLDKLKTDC

[5] = target: T5, panel of 442 kinases (Homo sapiens, UniProt Q9H1R3); conditions: kinase MYLK2; for remaining activity at 1 µM: read-out: % of control at 1 µM
T5 construct: purchased Ambit Biosciences (scanMAXX KINOMEscan)

[6] = target: T6, panel of 442 kinases (Homo sapiens, UniProt Q9UKI8); conditions: kinase TLK1; for remaining activity at 1 µM: read-out: TLK1 (% of control at 1 µM)
T6 construct: purchased Ambit Biosciences (scanMAXX KINOMEscan)
T6 sequence (Q9UKI8 1-766): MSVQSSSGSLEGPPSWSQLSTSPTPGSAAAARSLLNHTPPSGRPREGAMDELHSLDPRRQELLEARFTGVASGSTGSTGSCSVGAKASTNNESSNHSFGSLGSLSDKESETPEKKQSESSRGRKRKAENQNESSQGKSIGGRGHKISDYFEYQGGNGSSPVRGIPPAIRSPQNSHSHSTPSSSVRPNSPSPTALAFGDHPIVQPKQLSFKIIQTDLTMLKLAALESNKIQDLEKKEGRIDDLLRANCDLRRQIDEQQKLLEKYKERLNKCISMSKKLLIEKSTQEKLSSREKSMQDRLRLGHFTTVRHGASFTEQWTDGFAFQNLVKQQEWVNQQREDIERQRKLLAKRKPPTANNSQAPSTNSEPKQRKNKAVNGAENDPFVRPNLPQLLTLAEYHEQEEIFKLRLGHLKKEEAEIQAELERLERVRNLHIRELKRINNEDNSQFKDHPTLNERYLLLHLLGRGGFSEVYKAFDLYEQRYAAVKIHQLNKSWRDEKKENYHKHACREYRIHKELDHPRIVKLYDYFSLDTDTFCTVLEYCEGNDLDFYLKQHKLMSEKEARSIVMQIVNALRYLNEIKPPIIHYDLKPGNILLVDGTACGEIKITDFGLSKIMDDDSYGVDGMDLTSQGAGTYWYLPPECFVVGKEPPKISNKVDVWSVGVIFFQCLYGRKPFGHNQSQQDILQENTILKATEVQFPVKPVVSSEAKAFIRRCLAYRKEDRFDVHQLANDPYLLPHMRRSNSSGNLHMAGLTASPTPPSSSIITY

[7] = target: T7, panel of 442 kinases (Homo sapiens, UniProt Q9UL54); conditions: kinase TAOK2; for remaining activity at 1 µM: read-out: TAOK2 (% of control at 1 µM)
T7 construct: purchased Ambit Biosciences (scanMAXX KINOMEscan)
T7 sequence (Q9UL54 1-1235): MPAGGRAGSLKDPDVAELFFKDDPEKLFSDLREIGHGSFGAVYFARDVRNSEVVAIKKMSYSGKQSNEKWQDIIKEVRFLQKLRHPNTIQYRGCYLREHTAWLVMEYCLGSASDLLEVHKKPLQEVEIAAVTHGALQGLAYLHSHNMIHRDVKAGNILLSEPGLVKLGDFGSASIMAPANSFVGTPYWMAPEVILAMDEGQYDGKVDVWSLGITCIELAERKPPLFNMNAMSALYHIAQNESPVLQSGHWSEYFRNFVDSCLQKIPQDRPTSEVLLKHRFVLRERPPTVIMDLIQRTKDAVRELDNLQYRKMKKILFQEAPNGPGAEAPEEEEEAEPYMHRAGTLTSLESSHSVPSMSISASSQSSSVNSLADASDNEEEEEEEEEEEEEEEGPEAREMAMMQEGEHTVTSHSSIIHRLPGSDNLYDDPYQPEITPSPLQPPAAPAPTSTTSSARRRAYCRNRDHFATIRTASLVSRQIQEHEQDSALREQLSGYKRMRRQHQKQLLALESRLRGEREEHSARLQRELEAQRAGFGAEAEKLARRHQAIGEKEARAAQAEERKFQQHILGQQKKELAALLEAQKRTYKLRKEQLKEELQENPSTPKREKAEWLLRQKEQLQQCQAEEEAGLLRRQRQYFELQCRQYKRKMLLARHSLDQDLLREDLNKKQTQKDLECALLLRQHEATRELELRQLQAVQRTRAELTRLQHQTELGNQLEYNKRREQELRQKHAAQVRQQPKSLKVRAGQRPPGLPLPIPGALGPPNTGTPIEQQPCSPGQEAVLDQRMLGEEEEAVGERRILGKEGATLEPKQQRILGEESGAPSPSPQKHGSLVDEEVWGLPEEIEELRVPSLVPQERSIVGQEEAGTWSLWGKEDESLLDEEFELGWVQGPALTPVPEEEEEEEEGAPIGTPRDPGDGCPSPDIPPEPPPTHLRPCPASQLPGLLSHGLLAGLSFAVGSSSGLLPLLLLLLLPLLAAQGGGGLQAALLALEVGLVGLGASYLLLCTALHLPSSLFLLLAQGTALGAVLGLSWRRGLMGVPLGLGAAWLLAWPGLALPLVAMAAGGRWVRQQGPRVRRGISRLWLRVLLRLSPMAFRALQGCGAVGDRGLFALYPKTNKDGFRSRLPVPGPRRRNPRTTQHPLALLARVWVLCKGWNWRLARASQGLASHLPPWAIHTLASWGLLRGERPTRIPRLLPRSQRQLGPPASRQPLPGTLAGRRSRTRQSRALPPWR

[8] = 10 µM, read-out: % of control at 10 µM

T5 sequence (Q9H1R3 whole entry): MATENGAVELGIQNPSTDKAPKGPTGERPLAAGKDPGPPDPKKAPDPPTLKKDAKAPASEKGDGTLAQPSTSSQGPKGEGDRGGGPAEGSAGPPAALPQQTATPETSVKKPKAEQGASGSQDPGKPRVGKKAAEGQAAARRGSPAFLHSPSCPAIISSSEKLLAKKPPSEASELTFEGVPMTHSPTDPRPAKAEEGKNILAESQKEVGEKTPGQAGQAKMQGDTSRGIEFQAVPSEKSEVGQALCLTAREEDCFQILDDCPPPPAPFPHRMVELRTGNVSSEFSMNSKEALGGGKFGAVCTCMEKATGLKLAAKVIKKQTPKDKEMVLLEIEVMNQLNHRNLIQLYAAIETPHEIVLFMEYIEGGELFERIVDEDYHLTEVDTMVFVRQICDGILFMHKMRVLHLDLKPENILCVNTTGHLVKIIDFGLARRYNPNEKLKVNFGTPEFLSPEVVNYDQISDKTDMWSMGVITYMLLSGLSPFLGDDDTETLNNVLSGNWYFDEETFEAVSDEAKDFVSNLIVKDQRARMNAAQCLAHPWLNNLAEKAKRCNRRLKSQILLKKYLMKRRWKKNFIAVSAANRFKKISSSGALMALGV
T3 sequence (P27361 whole entry): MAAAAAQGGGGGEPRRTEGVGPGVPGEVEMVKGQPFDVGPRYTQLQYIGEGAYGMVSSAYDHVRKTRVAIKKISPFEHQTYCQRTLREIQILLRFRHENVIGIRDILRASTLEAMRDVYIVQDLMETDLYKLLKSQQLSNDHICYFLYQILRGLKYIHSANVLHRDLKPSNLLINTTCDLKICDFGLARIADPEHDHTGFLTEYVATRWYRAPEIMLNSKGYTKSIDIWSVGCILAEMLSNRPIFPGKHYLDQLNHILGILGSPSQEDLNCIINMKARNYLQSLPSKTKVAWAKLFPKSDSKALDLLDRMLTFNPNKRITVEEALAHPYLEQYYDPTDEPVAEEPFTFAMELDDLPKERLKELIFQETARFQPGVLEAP
T2 sequence (P14616 27-1297): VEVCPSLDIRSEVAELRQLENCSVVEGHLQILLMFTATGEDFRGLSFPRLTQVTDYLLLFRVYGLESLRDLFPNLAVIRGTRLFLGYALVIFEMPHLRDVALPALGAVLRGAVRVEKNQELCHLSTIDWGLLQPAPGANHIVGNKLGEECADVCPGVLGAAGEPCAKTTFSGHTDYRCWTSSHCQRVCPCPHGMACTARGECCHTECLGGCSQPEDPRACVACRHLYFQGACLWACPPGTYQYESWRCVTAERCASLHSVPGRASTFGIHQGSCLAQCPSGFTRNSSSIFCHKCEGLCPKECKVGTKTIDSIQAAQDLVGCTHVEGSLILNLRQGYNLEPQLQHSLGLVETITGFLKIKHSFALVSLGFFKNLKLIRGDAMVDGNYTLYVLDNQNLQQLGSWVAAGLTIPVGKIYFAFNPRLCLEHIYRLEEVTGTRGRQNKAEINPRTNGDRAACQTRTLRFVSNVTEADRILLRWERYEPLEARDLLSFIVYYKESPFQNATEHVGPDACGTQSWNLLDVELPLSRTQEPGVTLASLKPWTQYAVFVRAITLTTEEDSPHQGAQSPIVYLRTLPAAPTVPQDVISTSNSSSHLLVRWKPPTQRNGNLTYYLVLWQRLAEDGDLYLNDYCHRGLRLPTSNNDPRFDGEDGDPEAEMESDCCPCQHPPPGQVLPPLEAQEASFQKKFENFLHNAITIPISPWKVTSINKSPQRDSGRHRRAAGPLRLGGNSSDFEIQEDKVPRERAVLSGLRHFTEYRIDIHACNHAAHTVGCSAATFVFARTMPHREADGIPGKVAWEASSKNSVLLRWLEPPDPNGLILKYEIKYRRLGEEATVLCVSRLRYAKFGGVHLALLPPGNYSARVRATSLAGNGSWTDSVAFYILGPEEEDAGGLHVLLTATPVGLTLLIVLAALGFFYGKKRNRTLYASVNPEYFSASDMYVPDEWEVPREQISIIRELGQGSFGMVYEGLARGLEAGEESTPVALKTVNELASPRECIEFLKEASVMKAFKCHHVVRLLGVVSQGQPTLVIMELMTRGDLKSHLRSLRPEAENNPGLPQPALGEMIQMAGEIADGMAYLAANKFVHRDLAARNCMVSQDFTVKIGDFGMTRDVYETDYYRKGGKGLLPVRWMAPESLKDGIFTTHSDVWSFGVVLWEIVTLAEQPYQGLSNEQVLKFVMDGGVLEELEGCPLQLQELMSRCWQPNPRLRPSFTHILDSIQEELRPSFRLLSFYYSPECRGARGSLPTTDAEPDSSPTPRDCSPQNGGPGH

## Nc1cc(C(F)(F)F)c(-c2cc(N3CCOCC3)nc(N3CCOCC3)n2)cn1 [Buparlisib]
[1]; ABL1(T315I)-nonphosphorylated
  remaining activity at 1 µM: 94%
  remaining activity at 10 µM: 78%
[1]; ABL1(T315I)-phosphorylated
  remaining activity at 1 µM: 73%
  remaining activity at 10 µM: 100%
[2]
  remaining activity at 1 µM: 100%
[2]; [8]
  remaining activity at 10 µM: 100%
[3]
  remaining activity at 1 µM: 92%
[3]; [8]
  remaining activity at 10 µM: 100%
[4]
  remaining activity at 1 µM: 100%
[4]; [8]
  remaining activity at 10 µM: 100%
[5]
  remaining activity at 1 µM: 100%
[5]; [8]
  remaining activity at 10 µM: 100%
[6]
  remaining activity at 1 µM: 100%
[6]; 10 µM, read-out: TLK1 (% of control at 10 µM)
  remaining activity at 10 µM: 82%
[7]
  remaining activity at 1 µM: 87%
[7]; 10 µM, read-out: TAOK2 (% of control at 10 µM)
  remaining activity at 10 µM: 84%

## Cn1c(=O)n(-c2ccc(C(C)(C)C#N)cc2)c2c3cc(-c4cnc5ccccc5c4)ccc3ncc21 [Dactolisib, 2-methyl-2-[4-(3-methyl-2-oxo-8-quinolin-3-yl-2,3-dihydroimidazo[4,5-c]quinolin-1-yl)-phenyl] propionitrile]
[1]; ABL1(T315I)-nonphosphorylated
  remaining activity at 1 µM: 58%
[2]
  remaining activity at 1 µM: 100%
[3]
  remaining activity at 1 µM: 97%
[4]
  remaining activity at 1 µM: 65%
[5]
  remaining activity at 1 µM: 93%
[6]
  remaining activity at 1 µM: 75%
[7]
  remaining activity at 1 µM: 98%

## COc1ncc(-c2ccc3nccc(-c4ccnnc4)c3c2)cc1NS(=O)(=O)c1ccc(F)cc1F [Omipalisib]
[1]; ABL1(T315I)-nonphosphorylated
  remaining activity at 1 µM: 98%
[1]; ABL1(T315I)-phosphorylated
  remaining activity at 1 µM: 81%
[2]
  remaining activity at 1 µM: 93%
[3]
  remaining activity at 1 µM: 100%
[4]
  remaining activity at 1 µM: 100%
[5]
  remaining activity at 1 µM: 100%
[6]
  remaining activity at 1 µM: 95%
[7]
  remaining activity at 1 µM: 100%

## FC(F)c1nc2ccccc2n1-c1nc(N2CCOCC2)nc(N2CCOCC2)n1 [ZSTK474, 2-(difluoromethyl)-1-[4,6-di(4-morpholinyl)-1,3,5-triazin-2-yl]-1H-benzimidazole]
[1]; ABL1(T315I)-nonphosphorylated
  remaining activity at 1 µM: 50%
[1]; ABL1(T315I)-phosphorylated
  remaining activity at 1 µM: 100%
[2]
  remaining activity at 1 µM: 88%
[3]
  remaining activity at 1 µM: 100%
[4]
  remaining activity at 1 µM: 76%
[5]
  remaining activity at 1 µM: 95%
[6]
  remaining activity at 1 µM: 100%
[7]
  remaining activity at 1 µM: 81%
